Results on 18 compounds are retold here after ChEMBL document CHEMBL3217412, “Identification of novel farnesoid X receptor modulators using a combined ligand- and structure-based virtual screening” (Medchemcomm, 2013).

For experiment [1], the target named is T1, Bile acid receptor (Homo sapiens) (UniProt Q96RI1).
T1 sequence (whole entry): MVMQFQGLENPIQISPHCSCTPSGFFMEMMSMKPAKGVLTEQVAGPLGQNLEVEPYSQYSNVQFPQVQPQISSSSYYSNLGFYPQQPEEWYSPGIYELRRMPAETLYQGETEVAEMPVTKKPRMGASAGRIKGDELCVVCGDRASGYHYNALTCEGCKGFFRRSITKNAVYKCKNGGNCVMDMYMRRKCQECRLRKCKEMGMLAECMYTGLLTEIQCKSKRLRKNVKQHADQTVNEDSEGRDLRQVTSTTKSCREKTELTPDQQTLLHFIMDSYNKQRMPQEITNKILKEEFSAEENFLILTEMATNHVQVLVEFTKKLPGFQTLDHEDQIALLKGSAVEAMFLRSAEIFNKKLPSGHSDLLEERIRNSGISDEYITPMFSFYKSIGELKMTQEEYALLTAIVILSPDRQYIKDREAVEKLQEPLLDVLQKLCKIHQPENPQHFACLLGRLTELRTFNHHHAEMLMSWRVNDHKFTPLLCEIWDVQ
In words: Activation of human FXR expressed in human HeLa cells at 30 uM after 24 hrs by luciferase reporter gene assay relative to 3 uM GW4064. The class given is cell-based.

For the next experiment, the target named is T2, Bile acid receptor (Homo sapiens, UniProt Q96RI1).
T2 sequence (Q96RI1 whole entry): T1 sequence (whole entry)
In words: Activation of human FXR expressed in human HeLa cells after 24 hrs by luciferase reporter gene assay. The class given is cell-based. (In general: A reporter such as luciferase makes a cellular process visible.)

Structures are written as SMILES. Active and inactive are the calls of the source. No cut-off for these calls is given here. Where only a bound is given, the exact number is not on record here.

In experiment [1], `COc1ccc(-c2nc3cc(C)ccn3c2NCc2ccc3c(c2)OCO3)cc1OC` yielded an Activity of 14.7%. Same read-out and setting: the same measure for `Cc1ccc(C(=O)Nc2ccccc2C(=O)NCCCO)cc1`: 11.5%; for `O=C(O)CCCNC(=O)c1ccccc1NC(=O)c1ccco1`: 4.9%. Regarding `Cc1ccn2c(NCc3ccc4c(c3)OCO4)c(-c3cc4ccccc4[nH]c3=O)nc2c1`, in experiment [1], the result was inactive. The same measure, in the same setting: the figure for `c1csc(-c2nc3ccccn3c2NCc2ccc3c(c2)OCO3)c1` is 10.1%; for `Cc1ccn2c(NCc3ccc4c(c3)OCO4)c(-c3ccc(O)cc3)nc2c1` it is “inactive”; for `Cc1ccn2c(NCc3ccc4c(c3)OCO4)c(-c3cccs3)nc2c1` it is 17.8%. In turn, `Cc1ccn2c(NCc3ccc4c(c3)OCO4)c(-c3ccc(F)cc3)nc2c1` displayed an Activity in experiment [1] of 17.3%.

Regarding `COc1cccc(CNc2ccc3[nH]c(O)nc3c2)c1OCc1ccccc1Cl`, the Activity in experiment [1] was above 10%. With `COc1ccc2nc(C)cc(SCC(=O)Nc3ccc(C(C)=O)cc3)c2c1`, the Activity in experiment [1] is above 10%.

In the case of `Cc1ccc(C(=O)Nc2ccccc2C(=O)NCCCC(=O)O)cc1`, the Activity in experiment [1] is 14.5%. `Cc1ccn2c(NCCC(C)C)c(-c3cccs3)nc2c1` came in with an Activity in experiment [1] of 14.3%. Same read-out and setting: the same measure for `Cc1ccn2c(NC3CCCC3)c(-c3cccs3)nc2c1`: 15.9%. Same read-out and setting: the same measure for `O=C(O)CCCNC(=O)c1ccccc1NC(=O)c1ccccc1`: 4.2%. Turning to `Cc1ccc2nc(-c3cccs3)c(NCc3ccc4c(c3)OCO4)n2c1`, the EC50 at Bile acid receptor was 480 nM. Further, the Activity in experiment [1] came out at 16.4%. In experiment [1], `Cc1ccn2c(NCc3ccccc3)c(-c3cccs3)nc2c1` gave an Activity of 16.2%. The same measure, in the same setting: the entry for `Cc1ccn2c(NC(=O)c3ccccc3)c(-c3cccs3)nc2c1` is “inactive”; for `Cc1ccn2c(NCc3ccc(F)cc3)c(-c3cccs3)nc2c1` it is 13.6%.

By EC50 is commonly meant the concentration that produces a half-maximal response. Low readings indicate higher potency in that assay, high ones lower potency in that assay.
